Results published in patent publication US4845123A, “Reduction in vivo of the inappropriate levels of endogenous and environmental-derived compounds by sustained-release inhibitors of β- g” (priority 1985, dated 1989).
Values joined by “and” are separate entries in the source; they are usually repeats but may differ in a detail not shown here. Equal entries are not always repeated. “Also recorded” adds a separate entry of the source. Where two headings read alike, the source gives them in different places.

What was measured:
60 kd oncofetal protein = assay: effect of β-glucuronidase inhibitors on carcinogen induction of the 60 kd factor in plasma (cell-free RNA transport assay); type: in vivo, rat
[1] = Description: In the long term feeding experiments in which CGT intake was over an extended period of time, at the termination of the experiment the following organs were examined macroscopically and weighed: liver, kidneys, adrenals.
The adrenals were slightly (ca 20%) smaller by weight in the group receiving 10% CGT supplemented chow.

[2] = system: Estrogen and Androgen Levels
serum β-glucuronidase = molecular target: T1, serum β-glucuronidase (Rattus norvegicus, UniProt P06760); assay: in vivo; type: in vivo
T1 sequence (P06760 23-648): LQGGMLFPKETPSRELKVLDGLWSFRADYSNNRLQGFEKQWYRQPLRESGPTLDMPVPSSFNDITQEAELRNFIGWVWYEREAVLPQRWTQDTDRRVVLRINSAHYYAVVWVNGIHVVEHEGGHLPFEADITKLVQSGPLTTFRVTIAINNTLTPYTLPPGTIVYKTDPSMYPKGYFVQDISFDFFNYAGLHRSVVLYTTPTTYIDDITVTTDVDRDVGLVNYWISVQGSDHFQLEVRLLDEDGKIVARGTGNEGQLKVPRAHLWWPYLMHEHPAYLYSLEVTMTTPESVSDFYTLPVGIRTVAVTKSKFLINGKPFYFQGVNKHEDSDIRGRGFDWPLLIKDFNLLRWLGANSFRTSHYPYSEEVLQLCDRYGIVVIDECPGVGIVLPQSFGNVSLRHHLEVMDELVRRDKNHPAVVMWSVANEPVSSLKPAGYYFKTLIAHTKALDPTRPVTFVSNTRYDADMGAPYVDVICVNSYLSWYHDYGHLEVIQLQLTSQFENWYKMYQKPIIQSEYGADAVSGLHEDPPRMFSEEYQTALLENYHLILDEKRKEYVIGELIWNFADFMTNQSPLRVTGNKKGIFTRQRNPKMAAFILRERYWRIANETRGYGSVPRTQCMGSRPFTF
Experimental: GL was synthesized and microencapsulated to give sustained-release GL (EGL), by an established procedure used to microencapsulate ascorbic acid, as reported in Samejima, M. et al., Chem. Pharm. Bull., (Tokyo) 1982, 30:2894-2899. In this procedure, the GL as a fine powder is added to a stirred mixture of cyclohexane, polyisobutylene as coacervation-inducing agent and ethylcellulose as wall-forming material. The addition of GL is at 78° C., then phase separation is induced by lowering the temperature first to 40° C., then to 25° C. The microcapsules, which have thick walls, are washed with cyclohexane and dried. […] DAGDL, calcium D-glucarate (CGT), and potassium hydrogen D-glucarate (PGT) were synthesized. For comparison of efficacy of the inhibitors, 1,5 mmoles/kg (GL, EGL or DAGDL) or 4.5 mmoles/kg (CGT or PGT) of the inhibitor in 1.0 ml of sesame oil or vehicle only (controls) was administered to rats by stomach tube at zero time. Blood samples were obtained from different rats by cardiac puncture under ether anesthesia. The serum was prepared and assayed for β-glucuronidase activity using a commerical diagnostic kit sold by Sigma Chemical Company, St. Louis, MO. The assay is based on the hydrolysis of phenolphthalein-glucuronide and quantitation of phenolphthalein in alkaline medium at […]. For tests of anti-carcinogencity, the inhibitors were administered by stomach tube in 1.0 ml of sesame oil 30 minutes before and again at 2.5 hours after the carcinogen, for DAGDL, or 3 hours and 30 minutes before the carcinogen, for EGL, CGT, and PGT. The controls received sesame oil only by stomach tube.
At the time periods indicated above blood samples were obtained from rats under ether aneathesia by cardiac puncture, the serum was then prepared and assayed for β-glucuronidase activity using a commercial diagnostic kit sold by Sigma Chem. Co., St. Louis, MO.
For the inhibition of the initiation stage, CGT was given by gavage in two doses (4.5 mmoles/kg/dose) at 3 hours and again at 0.5 hours before carcinogen administration. […] The concentrations of CGT were incorporated into the powdered chow diet. The blood samples were obtained 10 days after the initiation of the CGT feeding.
DAGDL or GL (1.5 mmol/kg) in 1.0 ml of sesame oil, or vehicle only (controls) was administered to rats by stomach tube at zero time. […] The serum was prepared and assayed for β-glucuronidase activity using a commercial diagnostic kit sold by Sigma Chemical Company, St. Louis, MO. The assay is based on the hydrolysis of phenolphthalein-glucuronide and quantitation of phenolphtalein in alkaline medium at 550 nm.

bladder tumors = details: Boyland et al. 1964 (GL); Katayama 1972 (DAGDL); cited from earlier work
[3] = system: MNU-induced mammary tumors; assay: MNU-induced mammary carcinogenesis; type: in vivo, rat; details: MNU 40 mg/kg i.v., DAGDL 2 dose schedule; FIG. 10
Experimental: In this experiment, MNU (40 mg/kg) was administered to 50 day old Sprague Dawley female rats by i.v. injection. One half of the rats were co-administered DAGDL according to a 2 dose schedule.

[4] = Furuno et al. 1975; cited from earlier work
bladder tumor = details: Uemura et al. 1975; cited from earlier work
[5] = carcinogen 7,12-Dimethylbenz[a]anthracene, 21 days post-treatment
[6] = +CGT, 50 day old Sprague Dawley female rats
[7] = +DAGDL (1.5% DAGDL diet), female Sprague Dawley rats
[8] = +DAGDL (1.5% DAGDL diet), male Sprague Dawley rats
[9] = second dose of DAGDL 3 hours after the initial dose, 2.5 hours after carcinogen

O=C([O-])[C@@H](O)[C@@H](O)[C@H](O)[C@@H](O)C(=O)[O-].[Ca+2] [CGT, calcium D-glucarate]
Percent Inhibition of the induction of the 60 kd factor (60 kd oncofetal protein; carcinogen 1,2-Dimethylhydrazine, 21 days post-treatment): 60%
Percent Inhibition of the induction of the 60 kd factor (60 kd oncofetal protein; carcinogen 1-Nitropyrene, 21 days post-treatment): 50%
Percent Inhibition of the induction of the 60 kd factor (60 kd oncofetal protein; carcinogen 2-Naphthylamine, 21 days post-treatment): 49%
Percent Inhibition of the induction of the 60 kd factor (60 kd oncofetal protein; carcinogen 3-Methylcholanthrene, 21 days post-treatment): 43%
Percent Inhibition of the induction of the 60 kd factor (60 kd oncofetal protein; [5]): 83%
Percent Inhibition of the induction of the 60 kd factor (60 kd oncofetal protein; carcinogen N-Nitrosodibutylamine, 21 days post-treatment): 53% and > 50%
Percent Inhibition of the induction of the 60 kd factor (60 kd oncofetal protein; carcinogen N-Nitrosodiethylamine, 21 days post-treatment): 41%
Percent Inhibition of the induction of the 60 kd factor (60 kd oncofetal protein; carcinogen N-Nitrosodimethylamine, 21 days post-treatment): 76%
Percent Inhibition of the induction of the 60 kd factor (60 kd oncofetal protein; carcinogen N-Nitrosoethylurea, 21 days post-treatment): 68%
Percent Inhibition of the induction of the 60 kd factor (60 kd oncofetal protein; carcinogen N-Nitrosomethylurea, 21 days post-treatment): 69%
Percent Inhibition of the induction of the 60 kd factor (60 kd oncofetal protein; carcinogen Safrole, 21 days post-treatment): 45%
Percent Inhibition of the induction of the 60 kd factor (60 kd oncofetal protein; rat, in vivo): 86% and 70%
decrease of adrenal weight ([1]; rat, in vivo): ~20%
food intake and weight-gain compared with chow diet ([1]; rat, in vivo): essentially identical to those on chow diet
liver and kidney weights compared with controls ([1]; rat, in vivo): essentially identical in weight
17-Ketosteroids (urinary excretion) [2, 6]: 13 μg/100 g body wt × 24 hrs
Estradiol (serum) [2, 6]: 39 pg/mL
reduction of serum estradiol level ([2]; CGT diet, female rats): 24%
reduction of urinary 17-ketosteroid level ([2]; CGT diet, female rats): 55%
reduction of serum β-glucuronidase activity (serum β-glucuronidase; rat, in vivo): 50% and 80%
reduction of serum β-glucuronidase levels by dietary CGT (serum β-glucuronidase; rat, in vivo): 50%
time-course of serum β-glucuronidase inhibition (serum β-glucuronidase; rat, in vivo): prolonged inhibition

CC(=O)O[C@@H]1C(=O)O[C@H]2[C@@H]1OC(=O)[C@@H]2OC(C)=O [DAGDL, 2,5-di-O-acetyl-D-glucaro-1,4;6,3-dilactone]
clinical effect in prevention of bladder tumors (bladder tumors): only a slight beneficial effect
inhibition of mammary tumor development [3]: approx. 4 fold
60 kd factor in plasma, MNU with inhibitor (60 kd oncofetal protein; 504 h): 1.2 Units
Percent Inhibition of the induction of the 60 kd factor (60 kd oncofetal protein; carcinogen 2-Acetylaminofluorene, 21 days post-treatment): 66%
Percent Inhibition of the induction of the 60 kd factor (60 kd oncofetal protein; [5]): 77%
Percent Inhibition of the induction of the 60 kd factor (60 kd oncofetal protein; carcinogen Benzo[a]pyrene, 21 days post-treatment): 76%
decrease of adrenal weight ([1]; DAGDL supplemented chow): 20-30%
sex hormone levels ([2]; 1.5% DAGDL diet, male and female rats): reduces sex hormone levels; also recorded: lower steady state level of steroid hormones
17-Ketosteroids (urinary excretion) [2, 7]: 12 μg/100 g body wt × 24 hrs
Estradiol (serum) [2, 7]: 140 pmol/L
17-Ketosteroids (urinary excretion) [2, 8]: 17 μg/100 g body wt × 24 hrs
Testosterone (serum) [2, 8]: 9 nmol/L
clearance of antibiotics which cause kidney damage [4]: inconclusive results
inhibition of N-butyl-N-(4-butanol)nitrosamine-mediated bladder tumor (bladder tumor): unsuccessful
time to 50% inhibition of serum β-glucuronidase (serum β-glucuronidase; 1.5 mmol/kg): ≤ 0.5 h
time for which 50% inhibition or greater is maintained (serum β-glucuronidase; 1.5 mmol/kg, single dose): approximately 3 hours
reduction of serum β-glucuronidase activity (serum β-glucuronidase; 1.5 mmoles/kg i.g., assayed 1 hour after administration): 80%
effect of carcinogen co-administration on degree of β-glucuronidase inhibition (serum β-glucuronidase; carcinogen co-administered): not influenced significantly
inhibition at 1500 µmol/kg (serum β-glucuronidase; rat, 1.5 mmol/kg, within 0.5 hour of administration): 50%
duration of approximately 50% inhibition after second dose (serum β-glucuronidase; [9]): up to 6 hours
inhibition of β-glucuronidase after second dose (serum β-glucuronidase; [9]): approximately 50%
time-course of serum β-glucuronidase inhibition (serum β-glucuronidase; single i.g. dose 1.5 mmoles/kg (GL, DAGDL, EGL)): marked and prolonged inhibition; also recorded: more prolonged inhibition
